What was measured:
Format in all cases: biochemical
MMP-16 = target: T1, MMP-16 (Homo sapiens, UniProt P51512); assay: In vitro MMP-16 inhibition test; conditions: human MMP-16
T1 construct: purchased R&D Systems 1785-MP
Source text: (§1) The MMP-mediated amidolytic cleavage of a suitable peptide substrate leads to an increase in fluorescent light here too. The signal intensity of the fluorescent light is directly proportional to the enzyme activity. The active concentration of a test compound at which half the enzyme is inhibited (50% signal intensity of the fluorescent light) is reported as the IC50 value.
Recombinant MMP-16 (R&D Systems, 1785-MP) is enzymatically activated in accordance with the manufacturer's instructions using recombinant furin (R&D Systems, 1503-SE). 1 μl of the test compound to be analysed (as a solution in DMSO, suitable concentrations e.g. 1 nM to 30 μM) is pipetted into 24 μl of activated enzyme (final concentration e.g. 1 nM) in reaction buffer (50 mM Tris/HCl pH 7.5, 10 mM CaCl2, 150 mM NaCl, 0.05% Brij®-35) in a white 384-hole microtiter plate (MTP). The enzymatic reaction is started by adding the intramolecularly quenched Mca-Lys-Pro-Leu-Gly-Leu-Dpa(Dnp)-Ala-Arg-NH2 substrate (final concentration e.g. 5 μM; R&D Systems, ES-010), so as to result in a total test volume of 50 μl. The course of the MMP-16 reaction is measured by measuring the fluorescence intensity (excitation 320 nm, emission 410 nm) over a suitable period of time (e.g. over 120 min at a temperature of 32° C.).

[1] = target: T2, human macrophage elastase (HME/hMMP-12) (Homo sapiens, UniProt P39900); assay: In vitro HME inhibition test (standard or high-sensitivity); conditions: in some cases mean values, rounded to two significant figures
T2 construct: purchased R&D Systems 917-MP
Outline: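 Autoactivated HME (0.5 nM; high-sensitivity format 0.05 nM, ~16 h) with 5 μM quenched Mca-PLGLEEA-Dap(Dnp)-NH2 substrate in HEPES pH 7.4, NaCl, CaCl2, ZnCl2, EDTA, Brij buffer, 2 h at 37° C. Fluorescence at ex 323/em 393 nm; IC50 from signal versus concentration.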

MMP-13 = target: T3, MMP-13 (Homo sapiens, UniProt P45452); assay: In vitro MMP-13 inhibition test; conditions: human MMP-13
T3 construct: purchased R&D Systems 511-MP
Source text: as §1
Recombinant MMP-13 (R&D Systems, 511-MP) is chemically activated in accordance with the manufacturer's instructions using APMA. 1 μl of the test compound to be analysed (as a solution in DMSO, suitable concentrations e.g. 1 nM to 30 μM) is pipetted into 24 μl of activated enzyme (final concentration e.g. 0.1 nM) in reaction buffer (50 mM Tris/HCl pH 7.5, 10 mM CaCl2, 150 mM NaCl, 0.05% Brij®-35) in a white 384-hole microtiter plate (MTP). The enzymatic reaction is started by adding the intramolecularly quenched Mca-Pro-Leu-Gly-Leu-Dpa(Dnp)-Ala-Arg-NH2 substrate (final concentration e.g. 10 μM; R&D Systems, ES-001), so as to result in a total test volume of 50 μl. The course of the MMP-13 reaction is measured by measuring the fluorescence intensity (excitation 320 nm, emission 410 nm) over a suitable period of time (e.g. over 120 min at a temperature of 32° C.).

T1 sequence (P51512 120-564 limits assumed): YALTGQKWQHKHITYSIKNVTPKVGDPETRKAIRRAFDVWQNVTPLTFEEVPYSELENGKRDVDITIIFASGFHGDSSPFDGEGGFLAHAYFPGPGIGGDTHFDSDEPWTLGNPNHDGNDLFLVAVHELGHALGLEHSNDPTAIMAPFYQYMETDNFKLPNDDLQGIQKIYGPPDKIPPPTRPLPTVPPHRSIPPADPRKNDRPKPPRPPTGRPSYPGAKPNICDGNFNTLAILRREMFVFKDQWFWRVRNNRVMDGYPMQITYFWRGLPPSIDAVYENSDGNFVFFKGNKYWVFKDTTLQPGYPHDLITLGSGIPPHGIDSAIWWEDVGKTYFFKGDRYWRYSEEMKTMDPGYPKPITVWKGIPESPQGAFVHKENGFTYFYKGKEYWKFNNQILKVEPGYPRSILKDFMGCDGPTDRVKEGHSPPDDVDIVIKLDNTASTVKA
T2 sequence (P39900 106-470): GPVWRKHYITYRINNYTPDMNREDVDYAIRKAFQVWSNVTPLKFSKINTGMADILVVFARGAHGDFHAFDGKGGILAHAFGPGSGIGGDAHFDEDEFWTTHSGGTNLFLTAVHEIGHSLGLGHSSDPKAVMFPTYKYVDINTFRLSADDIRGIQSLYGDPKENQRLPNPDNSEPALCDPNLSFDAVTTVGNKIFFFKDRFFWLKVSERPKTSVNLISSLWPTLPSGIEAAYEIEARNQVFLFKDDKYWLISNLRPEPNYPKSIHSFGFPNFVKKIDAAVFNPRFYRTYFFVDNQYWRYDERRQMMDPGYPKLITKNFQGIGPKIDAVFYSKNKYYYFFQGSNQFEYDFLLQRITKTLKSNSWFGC

IC50 (MMP-16) [µM]	IC50 [1] [µM]	IC50 (MMP-13) [µM]	SMILES
> 40	0.0026	> 40	O=C(CC(CCn1nnc2ccccc2c1=O)C(=O)O)c1cc2cc(OCCc3ccccc3Cl)ccc2o1 (racemic) [Example 1, (+/−)-4-{5-[2-(2-Chlorophenyl)ethoxy]-1-benzofur-2-yl}-4-oxo-2-[2-(4-oxo-1,2,3-benzotriazin-3(4H)-yl)ethyl]butanoic acid]
> 40	0.0026	2.2	O=C(CC(CCn1nnc2ccccc2c1=O)C(=O)O)c1cc2cc(OCCc3ccc(Cl)cc3)ccc2o1 (racemic) [Example 2, (+/−)-4-{5-[2-(4-Chlorophenyl)ethoxy]-1-benzofur-2-yl}-4-oxo-2-[2-(4-oxo-1,2,3-benzotriazin-3(4H)-yl)ethyl]butanoic acid]
> 40	0.004	0.73	O=C(CC(CCn1nnc2ccccc2c1=O)C(=O)O)c1cc2cc(OCCC3CCOCC3)ccc2o1 (racemic) [Example 6, (+/−)-4-Oxo-2-[2-(4-oxo-1,2,3-benzotriazin-3(4H)-yl)ethyl]-4-{5-[2-(tetrahydro-2H-pyran-4-yl)ethoxy]-1-benzofur-2-yl}butanoic acid]
> 40	0.0028	5	O=C(CC(CCn1nnc2ccccc2c1=O)C(=O)O)c1cc2cc(OCCC3CCCC3)ccc2o1 (racemic) [Example 7, (+/−)-4-[5-(2-Cyclopentylethoxy)-1-benzofur-2-yl]-4-oxo-2-[2-(4-oxo-1,2,3-benzotriazin-3(4H)-yl)ethyl]butanoic acid]
> 40	0.002	22	O=C(CC(CCn1nnc2ccccc2c1=O)C(=O)O)c1cc2cc(OCC3CCCCC3)ccc2o1 (racemic) [Example 8, (+/−)-4-[5-(Cyclohexylmethoxy)-1-benzofur-2-yl]-4-oxo-2-[2-(4-oxo-1,2,3-benzotriazin-3(4H)-yl)ethyl]butanoic acid]
> 40	0.0048	5.1	CCCCCCCOc1ccc2oc(C(=O)CC(CCn3nnc4ccccc4c3=O)C(=O)O)cc2c1 (racemic) [Example 31, (+/−)-4-[5-(Heptyloxy)-1-benzofur-2-yl]-4-oxo-2-[2-(4-oxo-1,2,3-benzotriazin-3(4H)-yl)ethyl]butanoic acid]
> 40	0.0046	5.2	O=C(CC(CCn1nnc2ccccc2c1=O)C(=O)O)c1cc2cc(OCCCc3ccccc3)ccc2o1 (racemic) [Example 37, (+/−)-4-Oxo-2-[2-(4-oxo-1,2,3-benzotriazin-3(4H)-yl)ethyl]-4-[5-(3-phenylpropoxy)-1-benzofur-2-yl]butanoic acid]
> 40	0.00062	2.1	O=C(CC(CCn1nnc2ccccc2c1=O)C(=O)O)c1cc2cc(OCc3ccc(C(F)(F)F)cc3)ccc2o1 (racemic) [Example 44, (+/−)-4-Oxo-2-[2-(4-oxo-1,2,3-benzotriazin-3(4H)-yl)ethyl]-4-(5-{[4-(trifluoromethyl)benzyl]oxy}-1-benzofur-2-yl)butanoic acid]
> 40	0.0016	4	O=C(CC(CCn1nnc2ccccc2c1=O)C(=O)O)c1cc2cc(OCc3cccc(Cl)c3)ccc2o1 (racemic) [Example 50, (+/−)-4-{5-[(3-Chlorobenzyl)oxy]-1-benzofur-2-yl}-4-oxo-2-[2-(4-oxo-1,2,3-benzotriazin-3(4H)-yl)ethyl]butanoic acid]
> 40	0.0041	11	Cc1cccc(COc2ccc3oc(C(=O)CC(CCn4nnc5ccccc5c4=O)C(=O)O)cc3c2)c1 (racemic) [Example 51, (+/−)-4-{5-[(3-Methylbenzyl)oxy]-1-benzofur-2-yl}-4-oxo-2-[2-(4-oxo-1,2,3-benzotriazin-3(4H)-yl)ethyl]butanoic acid]
> 40	0.005	> 40	CCCOc1ccc2cc(C(=O)CC(CCn3nnc4ccccc4c3=O)C(=O)O)oc2c1 (racemic) [Example 58, (+/−)-4-Oxo-2-[2-(4-oxo-1,2,3-benzotriazin-3(4H)-yl)ethyl]-4-(6-propoxy-1-benzofur-2-yl)butanoic acid]
> 40	0.0022	30	O=C(CC(CCn1nnc2ccccc2c1=O)C(=O)O)c1cc2ccc(OCCCC3CCCCC3)cc2o1 (racemic) [Example 71, (+/−)-4-[6-(3-Cyclohexylpropoxy)-1-benzofur-2-yl]-4-oxo-2-[2-(4-oxo-1,2,3-benzotriazin-3(4H)-yl)ethyl]butanoic acid]
6.4	0.00018	0.25	O=C(CC(CCn1nnc2ccccc2c1=O)C(=O)O)c1coc2cc(OCCC3CCOCC3)ccc12 (racemic) [Example 74, (+/−)-4-Oxo-2-[2-(4-oxo-1,2,3-benzotriazin-3(4H)-yl)ethyl]-4-{6-[2-(tetrahydro-2H-pyran-4-yl)ethoxy]-1-benzofur-3-yl}butanoic acid]
> 40	0.00022	3.8	O=C(CC(CCn1nnc2ccccc2c1=O)C(=O)O)c1coc2cc(OCCC3CCCC3)ccc12 (racemic) [Example 75, (+/−)-4-[6-(2-Cyclopentylethoxy)-1-benzofur-3-yl]-4-oxo-2-[2-(4-oxo-1,2,3-benzotriazin-3(4H)-yl)ethyl]butanoic acid]
> 40	0.00035	0.67	CCCCCOc1ccc2c(C(=O)CC(CCn3nnc4ccccc4c3=O)C(=O)O)coc2c1 (racemic) [Example 89, (+/−)-4-Oxo-2-[2-(4-oxo-1,2,3-benzotriazin-3(4H)-yl)ethyl]-4-[6-(pentyloxy)-1-benzofur-3-yl]butanoic acid]
> 40	0.0033	1.9	O=C(CC(CCn1nnc2ccccc2c1=O)C(=O)O)c1cc2ccc(OCC3CC3)cc2s1 (racemic) [Example 111, (+/−)-4-[6-(Cyclopropylmethoxy)-1-benzothiophen-2-yl]-4-oxo-2-[2-(4-oxo-1,2,3-benzotriazin-3(4H)-yl)ethyl]butanoic acid]
28	0.0003	0.25	O=C(CC(CCn1nnc2ccccc2c1=O)C(=O)O)c1cc2ccc(OCCc3ccccc3)cc2s1 (racemic) [Example 114, (+/−)-4-Oxo-2-[2-(4-oxo-1,2,3-benzotriazin-3(4H)-yl)ethyl]-4-[6-(2-phenylethoxy)-1-benzothiophen-2-yl]butanoic acid]
> 40	0.0027	1.1	CCCCCOc1ccc2cc(C(=O)CC(CCn3nnc4ccccc4c3=O)C(=O)O)sc2c1 (racemic) [Example 118, (+/−)-4-Oxo-2-[2-(4-oxo-1,2,3-benzotriazin-3(4H)-yl)ethyl]-4-[6-(pentyloxy)-1-benzothiophen-2-yl]butanoic acid]
> 40	0.0018	0.5	O=C(CC(CCn1nnc2ccccc2c1=O)C(=O)O)c1noc2cc(OCc3cccnc3)ccc12 (racemic) [Example 148, (+/−)-4-Oxo-2-[2-(4-oxo-1,2,3-benzotriazin-3(4H)-yl)ethyl]-4-[6-(pyridin-3-ylmethoxy)-1,2-benzoxazol-3-yl]butanoic acid]
11	0.0038	2.4	O=C(CC(CCn1nnc2ccccc2c1=O)C(=O)O)c1noc2cc(OCC3CC3)ccc12 (racemic) [Example 150, (+/−)-4-[6-(Cyclopropylmethoxy)-1,2-benzoxazol-3-yl]-4-oxo-2-[2-(4-oxo-1,2,3-benzotriazin-3(4H)-yl)ethyl]butanoic acid]

SMILES	IC50 (MMP-16) [µM]	IC50 [1] [µM]	IC50 (MMP-13) [µM]
CCCCCCCOc1ccc2c(C(=O)CC(CCn3nnc4ccccc4c3=O)C(=O)O)coc2c1 (racemic) [Example 101, (+/−)-4-[6-(Heptyloxy)-1-benzofur-3-yl]-4-oxo-2-[2-(4-oxo-1,2,3-benzotriazin-3(4H)-yl)ethyl]butanoic acid]	> 40	0.00053	1.1

— US20170121315A1, “HETEROBICYCLICALLY SUBSTITUTED 4-OXOBUTANE ACID DERIVATIVES AND USE THEREOF” (priority 2014, published 2017)
